According to PubChem BioAssay AID248 (DTP/NCI, 2004):
“And” between values parts separate entries of the source, which are not always exact repeats. Equal entries are not always repeated. Toxic doses and inconclusive results are not listed. No stated cut-off is given here; in the data, active means T/C of 150% or more; inactive means T/C below 125%.

Tested on: L1210 leukemia ip in BDF1 mice, survival T/C
Experiment: NCI In Vivo Anticancer Drug Screen. Data for tumor model L1210 Leukemia (intraperitoneal) in B6D2F1 (BDF1) mice
Conditions: endpoint: mean survival time, higher = longer survival
Outline: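 Tumor was transplanted into mice, which were then dosed with test compound or vehicle alone. Survival was recorded for each group, and the treated figure was expressed relative to the control figure.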

[1] = dose: 100.0 mg/kg/injection, schedule: Q04DX003 (ip), vehicle: other
[2] = dose: 200.0 mg/kg/injection, schedule: Q04DX003 (ip), vehicle: other
[3] = dose: 400.0 mg/kg/injection, schedule: Q04DX003 (ip), vehicle: other
[4] = dose: 100.0 mg/kg/injection, schedule: Q01DX009 (ip), vehicle: Klucel (hydroxypropylcellulose) (HPC)
[5] = dose: 100.0 mg/kg/injection, schedule: Q04DX003 (ip), vehicle: Klucel (hydroxypropylcellulose) (HPC)
[6] = dose: 200.0 mg/kg/injection, schedule: Q01DX009 (ip), vehicle: Klucel (hydroxypropylcellulose) (HPC)
[7] = dose: 200.0 mg/kg/injection, schedule: Q04DX003 (ip), vehicle: Klucel (hydroxypropylcellulose) (HPC)
[8] = dose: 400.0 mg/kg/injection, schedule: Q04DX003 (ip), vehicle: Klucel (hydroxypropylcellulose) (HPC)
[9] = dose: 100.0 mg/kg/injection, schedule: Q01DX001 (ip), vehicle: Klucel (hydroxypropylcellulose) (HPC)
[10] = dose: 200.0 mg/kg/injection, schedule: Q01DX001 (ip), vehicle: Klucel (hydroxypropylcellulose) (HPC)
[11] = dose: 100.0 mg/kg/injection, schedule: Q04DX003 (ip), vehicle: saline with Tween-80
[12] = dose: 200.0 mg/kg/injection, schedule: Q04DX003 (ip), vehicle: saline with Tween-80
[13] = dose: 400.0 mg/kg/injection, schedule: Q04DX003 (ip), vehicle: saline with Tween-80
[14] = dose: 50.0 mg/kg/injection, schedule: Q01DX001 (ip), vehicle: Klucel (hydroxypropylcellulose) (HPC)
[15] = dose: 100.0 mg/kg/injection, schedule: Q04DX002 (ip), vehicle: Klucel (hydroxypropylcellulose) (HPC)

Measured: T/C

CCOP(=S)(NCCCOC)OCC
inactive: dose: 100.0 mg/kg/injection, schedule: Q01DX001 (ip), vehicle: other 94 % of control | dose: 100.0 mg/kg/injection, schedule: Q01DX009 (ip), vehicle: other 92 % of control | [1] 87 % of control | dose: 200.0 mg/kg/injection, schedule: Q01DX001 (ip), vehicle: other 93 % of control | dose: 200.0 mg/kg/injection, schedule: Q01DX009 (ip), vehicle: other 93 % of control | [2] 92 % of control | dose: 400.0 mg/kg/injection, schedule: Q01DX001 (ip), vehicle: other 98 % of control | dose: 400.0 mg/kg/injection, schedule: Q01DX009 (ip), vehicle: other 88 % of control | [3] 93 % of control

C(=C\c1cnc2ccccc2n1)/c1ccc2c(c1)OCO2
inactive: [4] 89 % of control | [5] 95 % of control | [6] 92 % of control | [7] 91 % of control | dose: 400.0 mg/kg/injection, schedule: Q01DX009 (ip), vehicle: Klucel (hydroxypropylcellulose) (HPC) 97 % of control | [8] 93 % of control

CCC(C(=O)c1ccc(Cl)cc1)C(O)(C(F)(F)F)C(F)(F)F (configuration not stated)
inactive: [9] 95 % of control | [5] 102 % of control | [10] 98 % of control | [7] 98 % of control | dose: 400.0 mg/kg/injection, schedule: Q01DX001 (ip), vehicle: Klucel (hydroxypropylcellulose) (HPC) 112 % of control | [8] 93 % of control

CC(=O)OC1CCC2(C)C(CCC3C2CCC2(C)C3CC3OC(CCCC(C)CO)C(C)C32)C1 (configuration not stated)
inactive: dose: 25.0 mg/kg/injection, schedule: Q01DX001 (ip), vehicle: saline with Tween-80 88 % of control | dose: 50.0 mg/kg/injection, schedule: Q01DX001 (ip), vehicle: saline with Tween-80 98 % of control | dose: 100.0 mg/kg/injection, schedule: Q01DX001 (ip), vehicle: saline with Tween-80 95 % of control | dose: 400.0 mg/kg/injection, schedule: Q01DX001 (ip), vehicle: saline with Tween-80 95 % of control

NCC1OC(n2cnc3c(N)ncnc32)C(O)C1O (configuration not stated)
inactive: dose: 50.0 mg/kg/injection, schedule: Q01DX001 (ip), vehicle: carboxymethylcellulose (CMC) 98 % of control | dose: 100.0 mg/kg/injection, schedule: Q01DX001 (ip), vehicle: carboxymethylcellulose (CMC) 102 % of control | dose: 200.0 mg/kg/injection, schedule: Q01DX001 (ip), vehicle: carboxymethylcellulose (CMC) 107 % of control | dose: 400.0 mg/kg/injection, schedule: Q01DX001 (ip), vehicle: carboxymethylcellulose (CMC) 109 % of control

O=C(Nc1ccccc1C(F)(F)F)OCCOc1ccccc1
inactive: dose: 100.0 mg/kg/injection, schedule: Q01DX009 (ip), vehicle: gum acacia 92 % of control | dose: 200.0 mg/kg/injection, schedule: Q01DX009 (ip), vehicle: gum acacia 88 % of control | dose: 400.0 mg/kg/injection, schedule: Q01DX009 (ip), vehicle: gum acacia 93 % of control

Cc1cc(C(=O)O)ccc1Cl
inactive: [1] 101 % of control | [2] 101 % of control | [3] 103 % of control

Cc1c(N)c(C)c([N+](=O)[O-])c(C)c1N
inactive: [11] 91 % of control | [12] 98 % of control | [13] 98 % of control

CS(=O)(=O)OCCN=C(N)N[N+](=O)[O-]
inactive: dose: 20.0 mg/kg/injection, schedule: Q04DX003 (ip), vehicle: Klucel (hydroxypropylcellulose) (HPC) 95 % of control | dose: 40.0 mg/kg/injection, schedule: Q04DX003 (ip), vehicle: Klucel (hydroxypropylcellulose) (HPC) 95 % of control | dose: 80.0 mg/kg/injection, schedule: Q04DX003 (ip), vehicle: Klucel (hydroxypropylcellulose) (HPC) 97 % of control | [5] 105 % of control

O=C(Cn1ccc(O)cc1=O)c1ccco1
inactive: dose: 100.0 mg/kg/injection, schedule: Q01DX009 (ip), vehicle: saline with Tween-80 108 % of control | [11] 96 % of control | dose: 200.0 mg/kg/injection, schedule: Q01DX009 (ip), vehicle: saline with Tween-80 104 % of control | [12] 94 % of control | dose: 400.0 mg/kg/injection, schedule: Q01DX009 (ip), vehicle: saline with Tween-80 101 % of control | [13] 97 % of control

COc1ccccc1-n1c(=O)c(N=Nc2ccccc2C)c(O)n(-c2ccccc2Cl)c1=S
inactive: [14] 107 % of control | [9] 102 % of control | [10] 110 % of control

O=C1C2CC3C(CC2C(=O)[N]1[Sn]([c]1ccccc1)([c]1ccccc1)[c]1ccccc1)C1(Cl)C(Cl)=C(Cl)C3(Cl)C1(Cl)Cl (configuration not stated)
inactive: dose: 10.0 mg/kg/injection, schedule: Q01DX001 (ip), vehicle: carboxymethylcellulose (CMC) 98 % of control | dose: 20.0 mg/kg/injection, schedule: Q01DX001 (ip), vehicle: carboxymethylcellulose (CMC) 95 % of control | dose: 40.0 mg/kg/injection, schedule: Q01DX001 (ip), vehicle: carboxymethylcellulose (CMC) 101 % of control | dose: 80.0 mg/kg/injection, schedule: Q01DX001 (ip), vehicle: carboxymethylcellulose (CMC) 101 % of control

Cc1nccn1CC(=O)c1ccccc1
inactive: dose: 25.0 mg/kg/injection, schedule: Q01DX001 (ip), vehicle: Klucel (hydroxypropylcellulose) (HPC) 102 % of control | dose: 25.0 mg/kg/injection, schedule: Q01DX009 (ip), vehicle: Klucel (hydroxypropylcellulose) (HPC) 91 % of control | dose: 25.0 mg/kg/injection, schedule: Q04DX003 (ip), vehicle: Klucel (hydroxypropylcellulose) (HPC) 100 % of control | [14] 113 % of control | dose: 50.0 mg/kg/injection, schedule: Q01DX009 (ip), vehicle: Klucel (hydroxypropylcellulose) (HPC) 94 % of control and 108 % of control | dose: 50.0 mg/kg/injection, schedule: Q04DX003 (ip), vehicle: Klucel (hydroxypropylcellulose) (HPC) 103 % of control | [9] 95 % of control | [4] 97 % of control | [15] 96 % of control and 106 % of control | [5] 94 % of control | dose: 200.0 mg/kg/injection, schedule: Q04DX002 (ip), vehicle: Klucel (hydroxypropylcellulose) (HPC) 101 % of control

O=C(Nc1ccccc1F)c1ccco1
inactive: [4] 100 % of control | [6] 103 % of control

Cc1ccc(C)c(S(=O)(=O)OCC2CO2)c1 (configuration not stated)
inactive: [11] 104 % of control | [12] 101 % of control | [13] 101 % of control

Cc1ccc(NC(=O)Nc2cc([N+](=O)[O-])ccc2F)cc1C
inactive: [5] 101 % of control | [7] 98 % of control | [8] 101 % of control

FC(F)(F)/C([S-])=C(/[S-])C(F)(F)F.FC(F)(F)/C([S-])=C(/[S-])C(F)(F)F.FC(F)(F)/C([S-])=C(/[S-])C(F)(F)F.FC(F)(F)/C([S-])=C(/[S-])C(F)(F)F.[Co+3].[Co+3]
inactive: dose: 12.5 mg/kg/injection, schedule: Q01DX009 (ip), vehicle: other 113 % of control | dose: 25.0 mg/kg/injection, schedule: Q01DX009 (ip), vehicle: other 104 % of control

Cc1nc2[nH]c(=O)[nH]c(=O)c2[nH]1
inactive: [11] 91 % of control | [12] 101 % of control | [13] 90 % of control

CCOC(=O)CNc1ccc(C)c(F)c1
inactive: dose: 25.0 mg/kg/injection, schedule: Q04DX002 (ip), vehicle: Klucel (hydroxypropylcellulose) (HPC) 98 % of control | dose: 50.0 mg/kg/injection, schedule: Q04DX002 (ip), vehicle: Klucel (hydroxypropylcellulose) (HPC) 98 % of control | [15] 97 % of control and 109 % of control
